# Legend:
# Type in all cases: in vivo
# Barley (Adonis) = assay: Post-emergence herbicidal effect and safener effect, Barley (Adonis); conditions: herbicide dosage 25 g a.i./ha, visual scoring vs untreated controls
# Method: (§1) Seeds or rhizome pieces of mono- and dicotyledonous harmful plants and of crop plants are planted in peat pots in sandy loam, covered with earth and grown in a greenhouse under good growth conditions. Alternatively to this, harmful plants occurring in the paddy rice cultivation are cultivated in pots in which water stands up to 2 cm above the soil surface. 10 to 20 days after sowing, the test plants are treated in the one to three-leaf stage. The herbicide/safener active ingredient combinations according to the invention, formulated as water-soluble powders or suspensions, and, in parallel experiments, the correspondingly formulated individual active ingredients are sprayed onto the green plant parts in various dosages using an application rate of 300 l of water/ha (converted) and, after the test plants have remained in the greenhouse under optimum growth conditions for 2-3 weeks, the effect of the preparations is scored visually in comparison with untreated controls. In the case of rice or in the case of harmful plants which occur in the rice cultivation, the active ingredients are also placed directly into the irrigation water (application analogous to the so-called granules application) or sprayed onto plants and into the irrigation water.
# Rice (Ballila) = assay: Post-emergence herbicidal effect and safener effect, Rice (Ballila); conditions: herbicide dosage 100 g a.i./ha, visual scoring vs untreated controls
# Method: as §1
# Corn (Aventura) [1] = assay: Post-emergence herbicidal effect and safener effect, Corn (Aventura); conditions: herbicide dosage 50 g a.i./ha, visual scoring vs untreated controls
# Method: as §1
# Wheat (Triso) = assay: Pre-emergence herbicidal effect and safener effect, Wheat (Triso); conditions: herbicide dosage 100 g a.i./ha, visual scoring vs untreated controls
# Text: (§2) Seeds or rhizome pieces of mono- and dicotyledonous weed plants and crop plants were planted in peat pots in sandy loam and covered with earth. The herbicide/safener active ingredient combinations according to the invention, formulated as water-soluble powders or suspensions, and, in parallel experiments, the correspondingly formulated individual active ingredients were then applied to the surface of the covering earth at an application rate of 600 to 800 l of water/ha (converted) in a variety of dosages.
# (§3) After the treatment, the pots were placed in the greenhouse and kept under good growth conditions for the weeds and the crop plants. Visual scoring of the plant damage or emergence damage was carried out after the test plants had emerged after a test period of 2 to 4 weeks, in comparison with untreated controls.
# Corn (Aventura) [2] = assay: Pre-emergence herbicidal effect and safener effect, Corn (Aventura); conditions: herbicide dosage 100 g a.i./ha, visual scoring vs untreated controls
# Text: as §2, §3
smiles,measurement,setting,value
COC(=O)c1nc(-c2ccc(Cl)c(OC)c2F)nc(N)c1Cl [Compound I-272],% Effect (without safener),Barley (Adonis),20%
same,% Effect (without safener),Rice (Ballila),70%
same,% Effect (without safener),Corn (Aventura) [1],70%
same,% Effect (without safener),Wheat (Triso),30%
same,% Effect (without safener),Corn (Aventura) [2],70%
